The source of these data is US11787780B2 (CORCEPT THERAPEUTICS INCORPORATED, priority 2020, dated 2023).

Molecules are shown by their SMILES.

In the test the test system is induction of TAT by dexamethasone in HepG2 cells. The test can be described thus: Hep G2 TAT assay (inhibition of dexamethasone-induced TAT). It is filed as cell-based, human. As to conditions: challenge of 100 nM dexamethasone, IC50 converted to Ki by Cheng and Prusoff equation. On the procedure: Glucocorticoid mediated activation of TAT occurs by transactivation of glucocorticoid response elements in the TAT promoter by glucocorticoid receptor-agonist complex. The following protocol describes an assay for measuring induction of TAT by dexamethasone in HepG2 cells (a human liver hepatocellular carcinoma cell line; ECACC, UK).
TAT activity was measured as outlined in the literature by A. Ah et al., J. Med. Chem., 2004, 47, 2441-2452.
HepG2 cells were cultured using MEME media supplemented with 10% (v/v) foetal bovine serum; 2 mM L-glutamine and 1% (v/v) NEAA at 37° C., 5%/95% (v/v) CO2/air. The HepG2 cells were counted and adjusted to yield a density of 0.125×10^6 cells/ml in RPMI 1640 without phenol red, 10% (v/v) charcoal stripped FBS, 2 mM L-glutamine and seeded at 25,000 cells/well in 200 μl into 96 well, sterile, tissue culture micro titre plates, and incubated at 37° C., 5% CO2 for 24 hours
Growth media was removed and replaced with assay media {RPMI 1640 without phenol red, 2 mM L-glutamine+10 μM forskolin}. Test compounds were screened against a challenge of 100 nM dexamethasone. Compounds were serially half log diluted in 100% (v/v) dimethylsulphoxide from a 10 mM stock.
Test compounds were pre-incubated with cells in micro-titre plates for 30 minutes at 37° C., 5/95 (v/v) CO2/air, before the addition of 100 nM dexamethasone and then subsequently for 20 hours to allow optimal TAT induction.
HepG2 cells were then lysed with 30 μl of cell lysis buffer containing a protease inhibitor cocktail for 15 minutes at 4° C. […] After 2 hours incubation at 37° C. the reaction was terminated by the addition of 15 μl of 10M aqueous potassium hydroxide solution, and the plates incubated for a further 30 minutes at 37° C. The TAT activity product was measured by absorbance at λ 340 nm.
[compound] and fitting the data to a 4 parameter logistic equation. IC50 values were converted to Ki (equilibrium dissociation constant) using the Cheng and Prusoff equation, assuming the antagonists were competitive inhibitors with respect to dexamethasone.
A word on the Ki: it is a measure of affinity in units of concentration, obtained from inhibition or displacement. In the case of `Cc1ncc(CC2(c3cc4cnn(-c5ccc(F)cc5)c4cc3C)CCN(C(=O)c3ccccc3)C2)s1` (stereo not drawn) [Example 234, (3-(1-(4-fluorophenyl)-6-methyl-1H-indazol-5-yl)-3-((2-methylthiazol-5-yl)methyl)pyrrolidin-1-yl)(phenyl)methanone], the Ki came out at 150 nM.

Take `COc1ccc(-n2ncc3cc(C4(Cc5ccccc5)CCN(S(=O)(=O)c5cnn(C)n5)C4)c(C)cc32)cn1` (stereo not drawn) [Example 236, 5-(3-benzyl-1-((2-methyl-2H-1,2,3-triazol-4-yl)sulfonyl)pyrrolidin-3-yl)-1-(6-methoxypyridin-3-yl)-6-methyl-1H-indazole]: the Ki stood at 81 nM.

`Cc1cc2c(cnn2-c2cccnc2)cc1C1(Cc2ccccc2)CCN(S(=O)(=O)c2cnn(C)n2)C1` (stereo not drawn) [Example 238, 5-(3-benzyl-1-((2-methyl-2H-1,2,3-triazol-4-yl)sulfonyl)pyrrolidin-3-yl)-6-methyl-1-(pyridin-3-yl)-1H-indazole] registered a Ki of 64 nM.

Consider `Cc1cc(-n2ncc3cc(C4(Cc5ccccc5)CCN(S(=O)(=O)c5cnn(C)n5)C4)c(C)cc32)ccn1` (stereo not drawn) [Example 240, 5-(3-benzyl-1-((2-methyl-2H-1,2,3-triazol-4-yl)sulfonyl)pyrrolidin-3-yl)-6-methyl-1-(2-methylpyridin-4-yl)-1H-indazole], for which affinity was put at a Ki of 73 nM. The Ki values of the last two compounds are within 1.5-fold of each other.

Consider `Cc1cc2c(cnn2-c2cccc(C#N)c2)cc1C1(Cc2ccccc2)CCN(S(=O)(=O)c2cnn(C)n2)C1` (stereo not drawn) [Example 241, 3-(5-(3-benzyl-1-((2-methyl-2H-1,2,3-triazol-4-yl)sulfonyl)pyrrolidin-3-yl)-6-methyl-1H-indazol-1-yl)benzonitrile], for which the Ki stood at 44 nM.

`Cc1cc2c(cnn2-c2ccn(C)c(=O)c2)cc1C1(Cc2ccccc2)CCN(S(=O)(=O)c2cnn(C)n2)C1` (stereo not drawn) [Example 244, 4-(5-(3-benzyl-1-((2-methyl-2H-1,2,3-triazol-4-yl)sulfonyl)pyrrolidin-3-yl)-6-methyl-1H-indazol-1-yl)-1-methylpyridin-2(1H)-one] displayed a Ki of 840 nM.

Regarding `Cc1cc2c(cnn2-c2cc(C#N)c(=O)n(C)c2)cc1C1(Cc2ccccc2)CCN(S(=O)(=O)c2cnn(C)n2)C1` (stereo not drawn) [Example 245, 5-(5-(3-benzyl-1-((2-methyl-2H-1,2,3-triazol-4-yl)sulfonyl)pyrrolidin-3-yl)-6-methyl-1H-indazol-1-yl)-1-methyl-2-oxo-1,2-dihydropyridine-3-carbonitrile], the Ki was determined as 190 nM.

For `CCn1cc(-n2ncc3cc(C4(Cc5ccccc5)CCN(S(=O)(=O)c5cnn(C)n5)C4)c(C)cc32)ccc1=O` (stereo not drawn) [Example 268, 5-(5-(3-benzyl-1-((2-methyl-2H-1,2,3-triazol-4-yl)sulfonyl)pyrrolidin-3-yl)-6-methyl-1H-indazol-1-yl)-1-ethylpyridin-2(1H)-one], the Ki came out at 160 nM. This Ki and that of the compound before are within 1.5-fold of each other.

For `Cc1cc2c(cnn2-c2ccc(=O)n(C(C)C)c2)cc1C1(Cc2ccccc2)CCN(S(=O)(=O)c2cnn(C)n2)C1` (stereo not drawn) [Example 269, 5-(5-(3-benzyl-1-((2-methyl-2H-1,2,3-triazol-4-yl)sulfonyl)pyrrolidin-3-yl)-6-methyl-1H-indazol-1-yl)-1-isopropylpyridin-2(1H)-one], the Ki came out at 1300 nM. This Ki lies about 8.1-fold higher than the previous one.

For the compound `Cc1cc2c(cnn2-c2ccc(=O)n(C3CC3)c2)cc1C1(Cc2ccccc2)CCN(S(=O)(=O)c2cnn(C)n2)C1` (stereo not drawn) [Example 270, 5-(5-(3-benzyl-1-((2-methyl-2H-1,2,3-triazol-4-yl)sulfonyl)pyrrolidin-3-yl)-6-methyl-1H-indazol-1-yl)-1-cyclopropylpyridin-2(1H)-one], the Ki came to 600 nM.

`CCCn1cc(S(=O)(=O)N2CCC(Cc3ccccc3)(c3cc4cnn(C5CCC(=O)N(C)C5)c4cc3C)C2)cn1` (stereo not drawn) [Example 273, 5-(5-(3-benzyl-1-((1-propyl-1H-pyrazol-4-yl)sulfonyl)pyrrolidin-3-yl)-6-methyl-1H-indazol-1-yl)-1-methylpiperidin-2-one] showed a Ki of 280 nM.

`Cn1ncc(S(=O)(=O)N2CCC(Cc3ccccc3)(c3cc4cnn(-c5ccc(=O)n(C)c5)c4cc3Cl)C2)n1` (stereo not drawn) [Example 277, 5-(5-(3-benzyl-1-((2-methyl-2H-1,2,3-triazol-4-yl)sulfonyl)pyrrolidin-3-yl)-6-chloro-1H-indazol-1-yl)-1-methylpyridin-2(1H)-one] gave a Ki of 54 nM.

For the compound `Cc1cc2c(cnn2-c2ccc(=O)n(C)c2)cc1C1(Cc2ccccc2)CCN(S(=O)(=O)c2cnn(CC(F)(F)F)c2)C1` (stereo not drawn) [Example 278, 5-(5-(3-benzyl-1-((1-(2,2,2-trifluoroethyl)-1H-pyrazol-4-yl)sulfonyl)pyrrolidin-3-yl)-6-methyl-1H-indazol-1-yl)-1-methylpyridin-2(1H)-one], the Ki was determined as 44 nM.

The compound `Cc1cc2c(cnn2-c2ccc(=O)n(C)c2)cc1C1(Cc2ccccc2)CCN(S(=O)(=O)c2cnn(C3CCC3)c2)C1` (stereo not drawn) [Example 279, 5-(5-(3-benzyl-1-((1-cyclobutyl-1H-pyrazol-4-yl)sulfonyl)pyrrolidin-3-yl)-6-methyl-1H-indazol-1-yl)-1-methylpyridin-2(1H)-one] returned a Ki of 50 nM.

With `Cc1cc2c(cnn2-c2ccc(=O)n(C)c2)cc1C1(Cc2ccccc2)CCN(S(=O)(=O)c2cnn(C(F)F)c2)C1` (stereo not drawn) [Example 280, 5-(5-(3-benzyl-1-((1-(difluoromethyl)-1H-pyrazol-4-yl)sulfonyl)pyrrolidin-3-yl)-6-methyl-1H-indazol-1-yl)-1-methylpyridin-2(1H)-one], the Ki worked out at 42 nM.

For `COCCn1cc(S(=O)(=O)N2CCC(Cc3ccccc3)(c3cc4cnn(-c5ccc(=O)n(C)c5)c4cc3C)C2)cn1` (stereo not drawn) [Example 281, 5-(5-(3-benzyl-1-((1-(2-methoxyethyl)-1H-pyrazol-4-yl)sulfonyl)pyrrolidin-3-yl)-6-methyl-1H-indazol-1-yl)-1-methylpyridin-2(1H)-one], the affinity, expressed as Ki, was 75 nM.

Consider `Cc1cc2c(cnn2-c2ccc(=O)n(C)c2)cc1C1(Cc2ccccc2)CCN(S(=O)(=O)c2cn(C)nc2C)C1` (stereo not drawn) [Example 282, 5-(5-(3-benzyl-1-((1,3-dimethyl-1H-pyrazol-4-yl)sulfonyl)pyrrolidin-3-yl)-6-methyl-1H-indazol-1-yl)-1-methylpyridin-2(1H)-one], for which the affinity corresponds to a Ki of 120 nM. Against the preceding compound, the Ki is about 1.6-fold higher.

`Cc1cc(S(=O)(=O)N2CCC(Cc3ccccc3)(c3cc4cnn(-c5ccc(=O)n(C)c5)c4cc3C)C2)n(C)n1` (stereo not drawn) [Example 283, 5-(5-(3-benzyl-1-((1,3-dimethyl-1H-pyrazol-5-yl)sulfonyl)pyrrolidin-3-yl)-6-methyl-1H-indazol-1-yl)-1-methylpyridin-2(1H)-one] yielded a Ki of 64 nM. This Ki lies about 1.9-fold lower than the previous one.

For the compound `Cc1cc2c(cnn2-c2ccc(=O)n(C)c2)cc1C1(Cc2ccccc2)CCN(S(=O)(=O)c2cnn(C)c2C)C1` (stereo not drawn) [Example 284, 5-(5-(3-benzyl-1-((1,5-dimethyl-1H-pyrazol-4-yl)sulfonyl)pyrrolidin-3-yl)-6-methyl-1H-indazol-1-yl)-1-methylpyridin-2(1H)-one], the Ki is 58 nM. This Ki and that of the compound before are within 1.5-fold of each other.

`Cc1cc2c(cnn2-c2ccc(=O)n(C)c2)cc1C1(Cc2ccccc2)CCN(S(=O)(=O)c2nccn2C)C1` (stereo not drawn) [Example 285, 5-(5-(3-benzyl-1-((1-methyl-1H-imidazol-2-yl)sulfonyl)pyrrolidin-3-yl)-6-methyl-1H-indazol-1-yl)-1-methylpyridin-2(1H)-one] returned a Ki of 82 nM.

For the compound `CCn1cc(S(=O)(=O)N2CCC(Cc3ccccc3)(c3cc4cnn(-c5ccc(=O)n(C)c5)c4cc3C)C2)nn1` (stereo not drawn) [Example 291, 5-(5-(3-benzyl-1-((1-ethyl-1H-1,2,3-triazol-4-yl)sulfonyl)pyrrolidin-3-yl)-6-methyl-1H-indazol-1-yl)-1-methylpyridin-2(1H)-one], the Ki amounted to 110 nM. The Ki values of the last two compounds are within 1.5-fold of each other.

`Cc1cc2c(cnn2-c2ccc(=O)n(C)c2)cc1C1(Cc2ccccc2)CCN(S(=O)(=O)c2cnn(CC(C)C)c2)C1` (stereo not drawn) [Example 319, 5-(5-(3-benzyl-1-((1-isobutyl-1H-pyrazol-4-yl)sulfonyl)pyrrolidin-3-yl)-6-methyl-1H-indazol-1-yl)-1-methylpyridin-2(1H)-one] displayed a Ki of 46 nM.

For `CCc1cc2c(cnn2-c2ccc(=O)n(C)c2)cc1C1(Cc2ccccc2)CCN(S(=O)(=O)c2cnn(C)n2)C1` (stereo not drawn) [Example 333, 5-(5-(3-benzyl-1-((2-methyl-2H-1,2,3-triazol-4-yl)sulfonyl)pyrrolidin-3-yl)-6-ethyl-1H-indazol-1-yl)-1-methylpyridin-2(1H)-one], the Ki stood at 41 nM.

In turn, `Cn1ncc(S(=O)(=O)N2CCC(Cc3ccccc3)(c3cc4cnn(-c5ccc(F)cc5)c4cc3C#N)C2)n1` (stereo not drawn) [Example 334, 5-(3-benzyl-1-((2-methyl-2H-1,2,3-triazol-4-yl)sulfonyl)pyrrolidin-3-yl)-1-(4-fluorophenyl)-1H-indazole-6-carbonitrile] gave a Ki of 52 nM.
